Experiment [1] addresses T1, NLuc-CAMKK2 (kinase domain) in HEK293 cells (Homo sapiens, UniProt Q96RR4).
T1 construct: this assay utilizes a nanoluciferase (NL) fused to the kinase domain of CAMKK2; expressed in transfected cells; host or cells: HEK293
In words: CAMKK2 NanoBRET in-cell target engagement assay. Particulars: HEK293 cells transiently transfected with NLuc-CAMKK2. Format: cell-based. On the technique in general: Bioluminescence resonance energy transfer reports proximity on the nanometre scale.
Description: CAMKK2 NanoBRET assay: To quantify the cellular activity of these inhibitors we developed a CAMKK2 NanoBRET target engagement assay [51, 52]. Briefly this assay utilizes a nanoluciferase (NL) fused to the kinase domain of CAMKK2. This NL kinase fusion is then transiently transfected into HEK293 cells and after 24 h, tracer is added to the cells. When the tracer and the NL-CAMKK2 fusion come into proximity they create a BRET signal that can be competed in a dose-dependent manner by the addition of cell-penetrant CAMKK2 inhibitors.
To evaluate this, we developed a NanoBRET in-cell target engagement assay. For this assay, the CAMKK2 kinase domain fused with a Nanoluciferase (NLuc) tag is transiently transfected into HEK293 cells. After 24 h, a heterobifunctional molecule that consists of an inhibitor that binds to CAMKK2 linked to a BODIPY dye is added to the cells. When the inhibitor–dye hybrid binds to the kinase, the proximity to the NLuc fused to CAMKK2 creates a BRET signal. This signal can then be competed away in a dose-dependent fashion with free inhibitor.

The target of another experiment is T2, ADCK4 (Homo sapiens, UniProt Q96D53).
T2 construct: purchased Eurofins DiscoverX KINOMEscan
In words: KINOMEscan 1 μM, ADCK4. The experiment is classed as binding. The note with it: 1000 nM; Entrez ADCK4; read-out: Percent Control. The source says:
(§1) Supplement cells-12-00287-s001.zip/File S2. KinomeScan data for the CAMKK2 probe and negative control.xlsx, sheet "SGC-CAMKK2-1" | column: Percent Control

The target of another experiment is T3, PLK4 (Homo sapiens, UniProt O00444).
T3 construct: purchased Eurofins DiscoverX KINOMEscan
T3 sequence (O00444 whole entry): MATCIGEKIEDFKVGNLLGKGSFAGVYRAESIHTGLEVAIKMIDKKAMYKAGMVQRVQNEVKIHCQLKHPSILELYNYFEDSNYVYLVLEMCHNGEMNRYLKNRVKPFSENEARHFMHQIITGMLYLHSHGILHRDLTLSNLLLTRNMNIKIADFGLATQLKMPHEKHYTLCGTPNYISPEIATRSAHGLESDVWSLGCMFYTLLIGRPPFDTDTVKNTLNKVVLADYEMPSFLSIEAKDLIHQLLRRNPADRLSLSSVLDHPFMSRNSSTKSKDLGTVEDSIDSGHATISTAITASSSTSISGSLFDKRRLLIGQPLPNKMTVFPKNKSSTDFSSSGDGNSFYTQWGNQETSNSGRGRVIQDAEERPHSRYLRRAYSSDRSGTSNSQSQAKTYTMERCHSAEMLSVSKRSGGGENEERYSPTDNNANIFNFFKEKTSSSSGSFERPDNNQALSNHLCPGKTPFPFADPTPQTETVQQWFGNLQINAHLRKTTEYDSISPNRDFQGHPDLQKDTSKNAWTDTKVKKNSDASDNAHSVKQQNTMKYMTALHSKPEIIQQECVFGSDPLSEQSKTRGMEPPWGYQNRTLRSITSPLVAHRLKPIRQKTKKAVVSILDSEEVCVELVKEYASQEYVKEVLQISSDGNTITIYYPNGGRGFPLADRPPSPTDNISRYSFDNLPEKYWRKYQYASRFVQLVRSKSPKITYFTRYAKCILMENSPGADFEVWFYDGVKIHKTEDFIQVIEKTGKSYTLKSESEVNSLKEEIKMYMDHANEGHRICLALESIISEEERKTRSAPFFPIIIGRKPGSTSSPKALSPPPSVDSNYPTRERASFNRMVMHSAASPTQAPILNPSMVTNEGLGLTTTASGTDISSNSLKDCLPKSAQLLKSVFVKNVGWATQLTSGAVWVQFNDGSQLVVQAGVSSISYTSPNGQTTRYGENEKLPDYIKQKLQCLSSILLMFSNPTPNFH
Nature of the experiment: DiscoverX KINOMEscan binding assay at 1 μM, PLK4. The note with it: Compound Concentration 1000 nM, read-out: Percent Control.
Description: as §1

The target in a further experiment is T4, PYK2 (Homo sapiens, UniProt Q14289).
T4 construct: purchased Eurofins DiscoverX KINOMEscan
Nature of the experiment: DiscoverX KINOMEscan binding assay at 1 μM, PYK2. Particulars: PYK2 (PTK2B); Compound Concentration 1000 nM; read-out: Percent Control.
Description: as §1

Another experiment addresses T5, DCAMKL1 (Homo sapiens, UniProt O15075).
T5 construct: purchased Eurofins DiscoverX KINOMEscan
Nature of the experiment: KINOMEscan 1 μM, DCAMKL1. Format: binding. Particulars: 1000 nM; Entrez DCLK1; read-out: Percent Control.
Description: as §1

A further experiment has as its target T6, ACVRL1 (Homo sapiens, UniProt P37023).
T6 construct: purchased Eurofins DiscoverX KINOMEscan
In words: KINOMEscan 1 μM, ACVRL1. The experiment is classed as binding. The note with it: 1000 nM; Entrez ACVRL1; read-out: Percent Control.
Description: as §1

The target in a further experiment is T7, MAP4K4 (Homo sapiens, UniProt O95819).
T7 construct: purchased Eurofins DiscoverX KINOMEscan
Nature of the experiment: KINOMEscan 1 μM, MAP4K4. The experiment is classed as binding. The note with it: 1000 nM; Entrez MAP4K4; read-out: Percent Control.
Description: as §1

For the next experiment, the target named is T8, TAOK3 (Homo sapiens, UniProt Q9H2K8).
T8 construct: purchased Eurofins DiscoverX KINOMEscan
Nature of the experiment: KINOMEscan 1 μM, TAOK3. The experiment is classed as binding. The note with it: 1000 nM; Entrez TAOK3; read-out: Percent Control.
Description: as §1

For a further experiment, the target named is T9, JNK3 (Homo sapiens, UniProt P53779).
T9 construct: purchased Eurofins DiscoverX KINOMEscan
T9 sequence (P53779 whole entry): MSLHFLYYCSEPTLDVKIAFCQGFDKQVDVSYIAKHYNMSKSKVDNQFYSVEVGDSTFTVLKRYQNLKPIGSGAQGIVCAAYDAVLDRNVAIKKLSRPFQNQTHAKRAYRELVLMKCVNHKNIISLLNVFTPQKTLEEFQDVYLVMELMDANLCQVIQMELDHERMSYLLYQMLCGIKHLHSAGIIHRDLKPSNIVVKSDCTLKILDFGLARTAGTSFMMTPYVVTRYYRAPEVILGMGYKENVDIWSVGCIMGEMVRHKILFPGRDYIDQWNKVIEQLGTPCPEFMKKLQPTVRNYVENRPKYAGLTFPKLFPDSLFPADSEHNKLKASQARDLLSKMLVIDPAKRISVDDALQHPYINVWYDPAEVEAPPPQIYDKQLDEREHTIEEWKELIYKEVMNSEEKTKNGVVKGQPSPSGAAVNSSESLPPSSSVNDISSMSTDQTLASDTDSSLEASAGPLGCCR
In words: KINOMEscan 1 μM, JNK3. The experiment is classed as binding. Particulars: 1000 nM; Entrez MAPK10; read-out: Percent Control.
Description: as §1

Another experiment has as its target T10, EPHA2 (Homo sapiens, UniProt P29317).
T10 construct: purchased Eurofins DiscoverX KINOMEscan
Nature of the experiment: KINOMEscan 1 μM, EPHA2. Format: binding. Particulars: 1000 nM; Entrez EPHA2; read-out: Percent Control.
Description: as §1

A further experiment addresses T11, HIPK1 (Homo sapiens, UniProt Q86Z02).
T11 construct: purchased Eurofins DiscoverX KINOMEscan
Nature of the experiment: KINOMEscan 1 μM, HIPK1. The experiment is classed as binding. The note with it: 1000 nM; Entrez HIPK1; read-out: Percent Control.
Description: as §1

A further experiment addresses T12, TIE1 (Homo sapiens, UniProt P35590).
T12 construct: purchased Eurofins DiscoverX KINOMEscan
Nature of the experiment: KINOMEscan 1 μM, TIE1. The experiment is classed as binding. The note with it: 1000 nM; Entrez TIE1; read-out: Percent Control.
Description: as §1

Experiment [2] deals with T13, RSK1(Kin.Dom.2-C-terminal) (Homo sapiens, UniProt Q15418).
T13 construct: RSK1(Kin.Dom.2-C-terminal); purchased Eurofins DiscoverX KINOMEscan
Nature of the experiment: KINOMEscan 1 μM, RSK1(Kin.Dom.2-C-terminal). Format: binding. Particulars: 1000 nM; Entrez RPS6KA1; read-out: Percent Control.
Description: as §1

In the next experiment the target is T14, EPHA6 (Homo sapiens, UniProt Q9UF33).
T14 construct: purchased Eurofins DiscoverX KINOMEscan
In words: KINOMEscan 1 μM, EPHA6. The experiment is classed as binding. Particulars: 1000 nM; Entrez EPHA6; read-out: Percent Control.
Description: as §1

Another experiment deals with T15, DAPK2 (Homo sapiens, UniProt Q9UIK4).
T15 construct: purchased Eurofins DiscoverX KINOMEscan
T15 sequence (Q9UIK4 whole entry): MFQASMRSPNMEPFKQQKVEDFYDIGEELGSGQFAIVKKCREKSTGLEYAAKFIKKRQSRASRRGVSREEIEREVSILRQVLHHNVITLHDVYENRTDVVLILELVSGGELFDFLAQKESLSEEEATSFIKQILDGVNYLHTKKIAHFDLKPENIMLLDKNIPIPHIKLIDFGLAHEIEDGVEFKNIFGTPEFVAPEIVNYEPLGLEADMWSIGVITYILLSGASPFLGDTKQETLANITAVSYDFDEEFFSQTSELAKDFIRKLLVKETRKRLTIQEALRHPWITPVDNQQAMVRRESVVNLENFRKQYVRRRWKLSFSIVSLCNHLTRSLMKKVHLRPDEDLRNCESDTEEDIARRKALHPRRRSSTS
In words: KINOMEscan 1 μM, DAPK2. The experiment is classed as binding. Particulars: 1000 nM; Entrez DAPK2; read-out: Percent Control.
Description: as §1

Another experiment deals with T16, RIPK2 (Homo sapiens, UniProt O43353).
T16 construct: purchased Eurofins DiscoverX KINOMEscan
Nature of the experiment: KINOMEscan 1 μM, RIPK2. Particulars: 1000 nM; Entrez RIPK2; read-out: Percent Control. Format: binding.
Description: as §1

Another experiment has as its target T17, MELK (Homo sapiens, UniProt Q14680).
T17 construct: purchased Eurofins DiscoverX KINOMEscan
Nature of the experiment: KINOMEscan 1 μM, MELK. The experiment is classed as binding. Particulars: 1000 nM; Entrez MELK; read-out: Percent Control.
Description: as §1

Another experiment concerns the target T18, FGR (Homo sapiens, UniProt P09769).
T18 construct: purchased Eurofins DiscoverX KINOMEscan
In words: KINOMEscan 1 μM, FGR. Particulars: 1000 nM; Entrez FGR; read-out: Percent Control. The experiment is classed as binding.
Description: as §1

The target in experiment [3] is T19, RSK4(Kin.Dom.1-N-terminal) (Homo sapiens, UniProt Q9UK32).
T19 construct: RSK4(Kin.Dom.1-N-terminal); purchased Eurofins DiscoverX KINOMEscan
T19 sequence (Q9UK32 1-400 limits assumed): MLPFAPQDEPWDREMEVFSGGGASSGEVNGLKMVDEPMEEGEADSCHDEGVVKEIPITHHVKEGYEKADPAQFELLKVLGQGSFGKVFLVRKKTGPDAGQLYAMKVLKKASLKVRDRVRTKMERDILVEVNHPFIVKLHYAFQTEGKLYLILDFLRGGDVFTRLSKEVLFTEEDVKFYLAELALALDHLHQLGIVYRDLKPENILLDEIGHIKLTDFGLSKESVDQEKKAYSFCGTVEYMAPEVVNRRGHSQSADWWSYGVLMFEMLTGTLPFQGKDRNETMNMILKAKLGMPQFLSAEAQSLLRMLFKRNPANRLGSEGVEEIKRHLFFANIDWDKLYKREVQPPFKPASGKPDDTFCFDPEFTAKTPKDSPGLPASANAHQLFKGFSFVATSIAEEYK
In words: KINOMEscan at 1 μM, RSK4(Kin.Dom.1-N-terminal). Format: binding. The note with it: 1000 nM, read-out: Percent Control. The source says:
(§2) Supplement cells-12-00287-s001.zip/File S2. KinomeScan data for the CAMKK2 probe and negative control.xlsx, sheet "SGC-CAMKK2-1N" | column: Percent Control

The target in another experiment is T20, ICK (Homo sapiens, UniProt Q9UPZ9).
T20 construct: purchased Eurofins DiscoverX KINOMEscan
Nature of the experiment: KINOMEscan at 1 μM, ICK. Format: binding. Particulars: 1000 nM, read-out: Percent Control.
Description: as §2

A further experiment has as its target T21, KIT(V559D,T670I) (Homo sapiens, UniProt P10721, T670I/V559D).
T21 construct: purchased Eurofins DiscoverX KINOMEscan
In words: KINOMEscan binding assay at 1 μM, KIT(V559D,T670I). The note with it: Compound Concentration 1000 nM; read-out: Percent Control.
Description: as §2

Another experiment addresses T22, DMPK2 (Homo sapiens, UniProt Q6DT37).
T22 construct: purchased Eurofins DiscoverX KINOMEscan
In words: KINOMEscan at 1 μM, DMPK2. The experiment is classed as binding. Particulars: 1000 nM, read-out: Percent Control.
Description: as §2

The next experiment addresses T23, RIPK5 (Homo sapiens, UniProt Q6XUX3).
T23 construct: purchased Eurofins DiscoverX KINOMEscan
Nature of the experiment: KINOMEscan at 1 μM, RIPK5. Format: binding. The note with it: 1000 nM, read-out: Percent Control.
Description: as §2

The target of another experiment is T24, RET (Homo sapiens, UniProt P07949).
T24 construct: purchased Eurofins DiscoverX KINOMEscan
In words: KINOMEscan binding assay at 1 μM, RET. The note with it: Compound Concentration 1000 nM; read-out: Percent Control.
Description: as §2

The next experiment addresses T25, YSK4 (Homo sapiens, UniProt Q56UN5).
T25 construct: purchased Eurofins DiscoverX KINOMEscan
In words: KINOMEscan at 1 μM, YSK4. Format: binding. The note with it: 1000 nM, read-out: Percent Control.
Description: as §2

In a further experiment the target is T26, PKAC-beta (Homo sapiens, UniProt P22694).
T26 construct: purchased Eurofins DiscoverX KINOMEscan
Nature of the experiment: KINOMEscan binding assay at 1 μM, PKAC-beta. Particulars: Compound Concentration 1000 nM; read-out: Percent Control.
Description: as §2

Another experiment concerns the target T27, MEK2 (Homo sapiens, UniProt P36507).
T27 construct: purchased Eurofins DiscoverX KINOMEscan
In words: KINOMEscan at 1 μM, MEK2. Format: binding. Particulars: 1000 nM, read-out: Percent Control.
Description: as §2

A further experiment addresses T28, NEK7 (Homo sapiens, UniProt Q8TDX7).
T28 construct: purchased Eurofins DiscoverX KINOMEscan
Nature of the experiment: KINOMEscan at 1 μM, NEK7. Particulars: 1000 nM, read-out: Percent Control. Format: binding.
Description: as §2

The target in another experiment is T29, FLT3(D835H) (Homo sapiens, UniProt P36888, D835H).
T29 construct: purchased Eurofins DiscoverX KINOMEscan
In words: KINOMEscan at 1 μM, FLT3(D835H). The experiment is classed as binding. Particulars: 1000 nM, read-out: Percent Control.
Description: as §2

A further experiment has as its target T30, ACVR1B (Homo sapiens, UniProt P36896).
T30 construct: purchased Eurofins DiscoverX KINOMEscan
In words: KINOMEscan at 1 μM, ACVR1B. Particulars: 1000 nM, read-out: Percent Control. The experiment is classed as binding.
Description: as §2

Another experiment has as its target T31, ERK5 (Homo sapiens, UniProt Q13164).
T31 construct: purchased Eurofins DiscoverX KINOMEscan
Nature of the experiment: KINOMEscan at 1 μM, ERK5. The experiment is classed as binding. The note with it: 1000 nM, read-out: Percent Control.
Description: as §2

T11 sequence (Q86Z02 whole entry): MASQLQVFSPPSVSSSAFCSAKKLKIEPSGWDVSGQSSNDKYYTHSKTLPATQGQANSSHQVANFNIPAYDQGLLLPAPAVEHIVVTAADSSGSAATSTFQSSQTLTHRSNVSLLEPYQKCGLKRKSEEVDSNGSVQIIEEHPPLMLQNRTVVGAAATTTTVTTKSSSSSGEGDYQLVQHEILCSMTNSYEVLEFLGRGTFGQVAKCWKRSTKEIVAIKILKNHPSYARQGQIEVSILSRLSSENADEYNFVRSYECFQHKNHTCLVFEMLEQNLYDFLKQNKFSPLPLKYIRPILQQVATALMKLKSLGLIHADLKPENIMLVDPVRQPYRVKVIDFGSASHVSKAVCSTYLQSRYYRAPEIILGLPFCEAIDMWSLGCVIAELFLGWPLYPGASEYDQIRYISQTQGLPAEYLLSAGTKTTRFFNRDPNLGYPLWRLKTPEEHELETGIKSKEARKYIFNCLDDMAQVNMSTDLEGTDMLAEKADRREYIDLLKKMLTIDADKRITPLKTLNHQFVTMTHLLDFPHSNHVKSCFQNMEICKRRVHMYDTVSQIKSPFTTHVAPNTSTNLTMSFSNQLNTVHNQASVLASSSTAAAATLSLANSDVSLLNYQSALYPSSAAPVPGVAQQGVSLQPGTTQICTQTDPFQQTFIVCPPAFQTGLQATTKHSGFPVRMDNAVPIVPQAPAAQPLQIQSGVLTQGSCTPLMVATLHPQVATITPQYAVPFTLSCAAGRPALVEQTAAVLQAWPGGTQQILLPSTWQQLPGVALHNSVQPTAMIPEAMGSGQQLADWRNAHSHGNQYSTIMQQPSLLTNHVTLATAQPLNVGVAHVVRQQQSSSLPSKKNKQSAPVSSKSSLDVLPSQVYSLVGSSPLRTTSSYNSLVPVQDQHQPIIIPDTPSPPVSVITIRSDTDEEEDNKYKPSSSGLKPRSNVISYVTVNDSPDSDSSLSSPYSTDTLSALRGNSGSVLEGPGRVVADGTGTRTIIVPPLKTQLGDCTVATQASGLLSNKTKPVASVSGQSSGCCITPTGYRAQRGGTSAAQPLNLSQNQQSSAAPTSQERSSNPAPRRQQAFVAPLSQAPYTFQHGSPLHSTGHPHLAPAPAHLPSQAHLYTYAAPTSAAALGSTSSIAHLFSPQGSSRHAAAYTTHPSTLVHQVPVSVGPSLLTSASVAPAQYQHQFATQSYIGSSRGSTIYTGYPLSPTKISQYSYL
T28 sequence (Q8TDX7 whole entry): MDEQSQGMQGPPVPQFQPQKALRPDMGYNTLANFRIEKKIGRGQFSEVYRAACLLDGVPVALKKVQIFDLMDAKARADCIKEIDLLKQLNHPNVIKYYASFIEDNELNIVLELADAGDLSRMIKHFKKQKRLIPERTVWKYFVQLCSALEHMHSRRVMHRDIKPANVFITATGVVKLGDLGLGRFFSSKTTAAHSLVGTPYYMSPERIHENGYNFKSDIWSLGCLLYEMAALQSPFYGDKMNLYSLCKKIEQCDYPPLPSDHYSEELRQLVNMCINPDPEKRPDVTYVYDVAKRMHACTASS
T12 sequence (P35590 22-1138): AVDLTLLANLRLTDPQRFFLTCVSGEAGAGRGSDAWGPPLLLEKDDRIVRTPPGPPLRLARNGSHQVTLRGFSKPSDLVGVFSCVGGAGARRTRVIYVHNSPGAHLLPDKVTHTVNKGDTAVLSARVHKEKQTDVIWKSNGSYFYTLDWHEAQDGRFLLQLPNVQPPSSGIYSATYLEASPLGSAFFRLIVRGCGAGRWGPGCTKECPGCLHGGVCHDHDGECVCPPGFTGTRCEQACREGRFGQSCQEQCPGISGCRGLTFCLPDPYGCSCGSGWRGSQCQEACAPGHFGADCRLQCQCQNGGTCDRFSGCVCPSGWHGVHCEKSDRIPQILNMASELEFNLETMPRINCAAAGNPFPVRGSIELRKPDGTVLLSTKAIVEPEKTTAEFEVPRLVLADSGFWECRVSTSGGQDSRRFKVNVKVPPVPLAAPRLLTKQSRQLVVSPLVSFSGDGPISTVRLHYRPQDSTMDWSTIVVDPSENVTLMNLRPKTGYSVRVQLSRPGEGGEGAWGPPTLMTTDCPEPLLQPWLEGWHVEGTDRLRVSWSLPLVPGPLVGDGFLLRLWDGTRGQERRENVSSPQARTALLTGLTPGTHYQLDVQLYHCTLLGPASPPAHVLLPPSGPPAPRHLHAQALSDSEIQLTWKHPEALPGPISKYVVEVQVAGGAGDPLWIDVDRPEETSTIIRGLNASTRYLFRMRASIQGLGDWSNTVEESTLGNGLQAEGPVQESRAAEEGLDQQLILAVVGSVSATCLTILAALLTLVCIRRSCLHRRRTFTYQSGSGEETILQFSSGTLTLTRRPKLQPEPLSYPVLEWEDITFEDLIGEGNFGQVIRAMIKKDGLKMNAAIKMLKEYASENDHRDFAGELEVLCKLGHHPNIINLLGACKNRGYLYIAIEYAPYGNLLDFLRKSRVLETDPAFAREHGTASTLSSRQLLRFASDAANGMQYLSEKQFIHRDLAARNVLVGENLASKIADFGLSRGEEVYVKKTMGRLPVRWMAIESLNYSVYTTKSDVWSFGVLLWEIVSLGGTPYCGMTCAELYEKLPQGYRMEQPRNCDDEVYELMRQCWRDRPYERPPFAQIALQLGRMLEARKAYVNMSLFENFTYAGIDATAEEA

For orientation: IC50 means the concentration at which inhibition is half-maximal. On to `Cc1cccc(-c2cnc3occ(-c4ccc(C(=O)O)c(C5CCCC5)c4)c3c2)c1` [Compound 5], for which, in experiment [1], it took 270 nM to reach half-maximal inhibition (IC50).

With `Cc1cccc(-c2cnc3occ(-c4ccc(C(=O)O)c(C5CCCC5)c4)c3c2)c1` [SGC-CAMKK2-1 (YL-36)], the remaining binding at 1 µM amounted to 100% on ADCK4; 100% on PLK4; 100% on PYK2; 100% at DCAMKL1; 100% at ACVRL1; 85% at MAP4K4. The remaining binding at 1 µM on TAOK3 amounted to 97%; at JNK3 it was 100%; on EPHA2, 100%; on HIPK1, 90%; on TIE1, 77%; in experiment [2], 80%. Further, the remaining binding at 1 µM came to 100% at EPHA6; 94% at DAPK2; 55% on RIPK2; 79% at MELK; 100% at FGR.

In the case of `O=C(O)c1ccc(-c2coc3ncc(-c4ccccc4)cc23)cc1Cl` [SGC-CAMKK2-1N (UNC-YL-83)], the remaining binding at 1 µM in experiment [3] was determined as 92%; on ICK, 71%; at KIT(V559D,T670I), 100%; on DMPK2, 100%; on RIPK5 it was 78%; on RET, 100%. Moreover, the remaining binding at 1 µM at YSK4 amounted to 77%; at PKAC-beta it was 100%; at MEK2, 88%; on NEK7 it was 78%; on FLT3(D835H), 88%; at ACVR1B, 100%. For the same molecule, the remaining binding at 1 µM on ERK5 was 81%.

These data come from paper PMC9856672, “SGC-CAMKK2-1: A Chemical Probe for CAMKK2” (Cells, 2023).
